Data: article PMC6112376, “Comprehensive Analyses and Prioritization of Tox21 10K Chemicals Affecting Mitochondrial Function by in-Depth Mechanistic Studies” (Environmental Health Perspectives, 2018)
Counter-ions that a name gives are not always drawn. Like-named read-outs stand apart in the source and are kept apart here. Where a SMILES comes first, the peptide text is derived from it. [ ]: non-standard residue; d: D form. Orn = NCCC[C@H](N)C(=O)O

Legend:
HepG2 cells [1] = system: HepG2 cells
HepG2 cells [2] = settings: cited from earlier work
rat primary hepatocytes [3] = system: rat primary hepatocytes
HepG2 cells [4] = test: cells; settings: Homo sapiens; for IC50: HepG2, read-out: MMP assays IC50 (µM) HepG2; for Emax: HepG2, read-out: MMP assays efficacy (%) HepG2
rat primary hepatocytes [5] = test: MMP assay in rat primary hepatocytes; settings: for IC50: read-out: MMP assays IC50 (µM) Rat Hepatocytes
[6] = read-out: MMP assays IC50 (µM), qHTS-HepG2
[7] = read-out: MMP assays IC50 (µM) qHTS-HepG2

Row | SMILES | MMP assays efficacy (%) HepG2 (HepG2 cells [1]) | MMP assays efficacy (%) qHTS-HepG2 (HepG2 cells [2]) | MMP assays efficacy (%) Rat Hepatocytes (rat primary hepatocytes [3]) | IC50 (HepG2 cells [2]; [6]) | IC50 (HepG2 cells [2]; [7]) | IC50 (HepG2 cells [4]) | Emax (HepG2 cells [4]) | MMP assays IC50 (µM) Rat Hepatocytes (rat primary hepatocytes [5]) | IC50 (rat primary hepatocytes [5]; Rattus norvegicus, Hepatocyte) | IC50 (rat primary hepatocytes [5])
1 | CCN(CC)C(=S)[S-].CCN(CC)C(=S)[S-].[Zn+2] [Zinc diethyldithiocarbamate] | -63% | -70±15% | -95±12% |  |  |  |  |  |  | 
2 | CC(C)C[C@@H]1NC(=O)[C@H](CCCN)NC(=O)[C@H](C(C)C)NC(=O)[C@@H]2CCCN2C(=O)[C@@H](Cc2ccccc2)NC(=O)[C@H](CC(C)C)NC(=O)[C@H](CCCN)NC(=O)[C@H](C(C)C)NC(=O)[C@@H]2CCCN2C(=O)[C@@H](Cc2ccccc2)NC1=O [gramicidin, reference compound] (cyclo(L[dF]PV[Orn]L[dF]PV[Orn])) | -121% | -86±3% | -112±28% | 0.51 ± 0.42 µM |  |  |  |  |  | 
3 | CCC(C)(C)c1ccc(O)cc1 [4-(2-Methylbutan-2-yl)phenol] |  | -95±13% | inactive |  | 22.7 ± 3.07 µM | 35.5 µM | 96% | inactive |  | 
4 | Oc1c(Br)c(Br)c(Br)c(Br)c1Br [Pentabromophenol] |  | -104±8% | -93±13% | 3.46 ± 0.99 µM |  | 7.94 µM | 106% |  | 4.98 ± 2.48 µM | 
5 | CCC(C)c1cc([N+](=O)[O-])cc([N+](=O)[O-])c1OC(=O)OC(C)C (centres unmarked) [Dinobuton] |  | -105±4% | -115±54% |  | 4.33 ± 1.24 µM | 7.94 µM | 101% |  | 5.74 ± 4.21 µM | 
6 | CCCCCc1cc(O)c2c(c1)OC(C)(C)c1ccc(C)cc1-2 [Cannabinol] |  | -124±7% | -98±2% |  | 1.68 µM | 1.09 µM | 103% |  | 21.8 µM | 
7 | Brc1ccc(Oc2ccc(Br)cc2Br)c(Br)c1 [2,2'4,4'-Tetrabromodiphenyl ether] |  | -119±10% | -42±10% |  | 22.6 ± 5.18 µM | 39.8 µM | 104% |  | 25.6 ± 34.7 µM | 
8 | O=C(Nc1ccccc1)Nc1ccnc(Cl)c1 [Forchlorfenuron] |  | -112±3% | -108±37% | 0.45 ± 0.13 µM |  | 1 µM | 104% |  | 2.19 ± 1.97 µM | 
9 | NS(=O)(=O)C(F)(F)C(F)(F)C(F)(F)C(F)(F)C(F)(F)C(F)(F)C(F)(F)C(F)(F)F [Perfluorooctanesulfonamide] |  | -94±15% | -118±45% | 2.43 ± 0.81 µM |  | 2.51 µM | 101% |  | 1.47 ± 0.1 µM | 
10 | ClC1=C(Cl)C2(Cl)C3C(Cl)C=CC3C1(Cl)C2(Cl)Cl (centres unmarked) [Heptachlor] |  |  | inactive | 39.4 ± 17.9 µM |  | 31.6 µM | 87% | inactive |  | 
11 | CO[C@H]1[C@@H](O)C[C@H](O[C@H]2[C@@H](O)C[C@H](O[C@H]3[C@@H](O)C[C@H](O[C@H]4CC[C@@]5(C)[C@H](CC[C@@H]6[C@@H]5C[C@@H](O)[C@]5(C)[C@@H](C7=CC(=O)OC7)CC[C@]65O)C4)O[C@@H]3C)O[C@@H]2C)O[C@@H]1C [Methyldigoxin] |  | -71±5% | inactive | 0.73 ± 0.09 µM |  | 0.24 µM | 99% | inactive |  | 
12 | O=C1c2cccc(O)c2C(=O)c2c(O)cccc21 [Danthron] |  | -78±3% | -40±18% |  | 4.66 ± 1.19 µM | 15.5 µM | 91% |  | 5.97 ± 5.35 µM | 
13 | CN(C)c1ccc(N)cc1 [N,N-Dimethyl-p-phenylenediamine] |  | -100±15% | -69±29% | 9.1 ± 0.59 µM |  | 7.08 µM | 109% |  | 21.7 ± 15.7 µM | 
14 | O=[N+]([O-])c1ccc(O/N=C/c2cc(Br)c(O)c(Br)c2)c([N+](=O)[O-])c1 [Bromofenoxim] |  | -108±7% | -114±9% |  | 1.08 ± 0.25 µM | 3.98 µM | 100% |  | 2.18 ± 0.86 µM | 
15 | Oc1cc(Cl)c(Cl)c(Cl)c1 [3,4,5-Trichlorophenol] |  |  | -100±4% |  | 3.8 ± 1.74 µM | 5.01 µM | 96% |  | 33.8 ± 17.2 µM | 
16 | C#C[C@]1(O)CC[C@H]2[C@@H]3CCC4=CCCC[C@@H]4[C@H]3C(=C)C[C@@]21CC [Desogestrel] |  | -125±21% | inactive |  | 22.3 ± 2.11 µM | 27.5 µM | 84% | inactive |  | 
17 | O=C1OC(c2ccc(O)cc2)(c2ccc(O)cc2)c2ccccc21 [Phenolphthalein] |  | -103±24% | -98±24% | 42.8 ± 2.74 µM |  | 25.1 µM | 132% |  | 39.5 ± 16.9 µM | 
18 | O=c1c(O)c(-c2ccc(O)c(O)c2)oc2cc(O)cc(O)c12 [Quercetin] |  | -94±8% | -62±28% | 2.69 ± 2.26 µM |  | 3.16 µM | 96% |  |  | 15.1 ± 6.79 µM
19 | Oc1ccc(Oc2ccccc2)cc1 [Compound 4-Phenoxyphenol] |  | -106±22% | inactive |  | 28 ± 10.6 µM | 47.6 µM | 104% | inactive |  | 
20 | CC[C@@]1(O)C[C@H](O[C@H]2C[C@H](N(C)C)[C@H](O[C@H]3C[C@H](O)[C@H](O[C@H]4CCC(=O)[C@H](C)O4)[C@H](C)O3)[C@H](C)O2)c2c(cc3c(c2O)C(=O)c2c(O)cccc2C3=O)[C@H]1C(=O)OC [Aclarubicin hydrochloride] |  | -70±15% | -49±12% |  | 3.15 ± 2.82 µM | 2.45 µM | 39% |  | 6.89 ± 9.73 µM | 
21 | Cc1cc(C(C)(C)c2ccc(O)c(C)c2)ccc1O [3,3'-Dimethylbisphenol A] |  | -118±22% | -56±26% |  | 8.88 ± 3.37 µM | 11.2 µM | 110% |  | 34.4 ± 4.73 µM | 
22 | CC(C)(c1ccccc1)c1ccc(O)cc1 [Compound 4-Cumylphenol] |  | -103±17% | -77±17% |  | 3.7 ± 0.82 µM | 3.55 µM | 108% |  | 48 ± 11.6 µM | 
23 | Cc1cc(C)c(/C=C2\C(=O)Nc3ccccc32)[nH]1 [SU-5416] |  | -116±2% | -83±12% | 12.5 ± 1.78 µM |  | 13.8 µM | 115% |  | 11 ± 1.78 µM | 
24 | Cc1ccccc1C(=O)Nc1ccc(C(=O)N2CCCC(O)c3cc(Cl)ccc32)c(C)c1 (centres unmarked) [Tolvaptan] |  | -65±11% | -67±60% | 17.4 ± 8.01 µM |  | 19.4 µM | 50% |  | 17.4 ± 2 µM | 
25 | CCCCC(=O)O[C@]1(C(=O)CO)[C@H](C)C[C@H]2[C@@H]3CCC4=CC(=O)C=C[C@]4(C)[C@@]3(F)[C@@H](O)C[C@@]21C [Dexamethasone valerate] |  | -74±6% | -66±25% |  | 12.1 ± 4.39 µM | 17.3 µM | 114% |  | 23.5 ± 5.67 µM | 
